In the supplement of paper PMC10307832:

Assays:
Assay in all cases: relative viability (nuclei count vs DMSO), 5 days (fraction); higher = more cells survive
[1] = tested on: NCI-H838
Summary of the method: (§1)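 Lung cancer cell lines, seeded in 1536-well plates, were treated the following day by pin tool with a single drug or with five library-drug doses (not always all listed) in √10 steps on top of a fixed anchor-drug dose. Cells were fixed and nuclei stained in one step after 5 days, and nuclei were counted. Relative viability is the nuclei count for treated wells divided by that for vehicle wells, reported as medians of duplicate plates.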

[2] = tested on: NCI-H650
Summary of the method: as §1

[3] = tested on: NCI-H2087
Summary of the method: as §1

[4] = tested on: NCI-H596
Summary of the method: as §1

[5] = tested on: LXF-289
Summary of the method: as §1

[6] = tested on: HCC-78
Summary of the method: as §1

[7] = tested on: BEN
Summary of the method: as §1

[8] = tested on: NCI-H2342
Summary of the method: as §1

[9] = tested on: NCI-H322M
Summary of the method: as §1

[10] = tested on: LC-2-ad
Summary of the method: as §1

[11] = tested on: H3255
Summary of the method: as §1

[12] = tested on: NCI-H1666
Summary of the method: as §1

[13] = tested on: SK-MES-1
Summary of the method: as §1

[14] = tested on: UMC-11
Summary of the method: as §1

[15] = tested on: LU99A
Summary of the method: as §1

[16] = tested on: ChaGo-K-1
Summary of the method: as §1

[17] = tested on: HCC-15
Summary of the method: as §1

[18] = tested on: NCI-H358
Summary of the method: as §1

[19] = tested on: LK-2
Summary of the method: as §1

[20] = tested on: NCI-H661
Summary of the method: as §1

[21] = tested on: PC-3 [JPC-3]
Summary of the method: as §1

[22] = tested on: NCI-H1944
Summary of the method: as §1

[23] = tested on: LCLC-97TM1
Summary of the method: as §1

[24] = tested on: NCI-H1651
Summary of the method: as §1

Clc1ccc(Nc2nnc(Cc3ccncc3)c3ccccc23)cc1 [Vatalanib] + O=C(CCCCCCC(=O)Nc1ccccc1)NO [Vorinostat] (partner 1 µM)
relative viability ([1]; first compound 0.04 µM): 0.738 | relative viability ([1]; first compound 0.1265 µM): 0.761 | relative viability ([1]; first compound 0.4 µM): 0.775 | relative viability ([1]; first compound 1.265 µM): 0.62 | relative viability ([1]; first compound 4 µM): 0.694 | relative viability ([2]; first compound 0.04 µM): 0.397 | relative viability ([2]; first compound 0.1265 µM): 0.496 | relative viability ([2]; first compound 0.4 µM): 0.453 | relative viability ([2]; first compound 1.265 µM): 0.414 | relative viability ([2]; first compound 4 µM): 0.443 | relative viability ([3]; first compound 0.04 µM): 0.836 | relative viability ([3]; first compound 0.1265 µM): 0.6 | relative viability ([3]; first compound 0.4 µM): 0.595 | relative viability ([3]; first compound 1.265 µM): 0.701 | relative viability ([3]; first compound 4 µM): 0.533 | relative viability ([4]; first compound 0.04 µM): 0.603 | relative viability ([4]; first compound 0.1265 µM): 0.542 | relative viability ([4]; first compound 0.4 µM): 0.672 | relative viability ([4]; first compound 1.265 µM): 0.583 | relative viability ([4]; first compound 4 µM): 0.608 | relative viability ([5]; first compound 0.04 µM): 0.844 | relative viability ([5]; first compound 0.1265 µM): 0.832 | relative viability ([5]; first compound 0.4 µM): 0.801 | relative viability ([5]; first compound 1.265 µM): 0.712 | relative viability ([5]; first compound 4 µM): 0.75 | relative viability ([6]; first compound 0.04 µM): 0.425 | relative viability ([6]; first compound 0.1265 µM): 0.478 | relative viability ([6]; first compound 0.4 µM): 0.49 | relative viability ([6]; first compound 1.265 µM): 0.465 | relative viability ([6]; first compound 4 µM): 0.424 | relative viability ([7]; first compound 0.04 µM): 0.57 | relative viability ([7]; first compound 0.1265 µM): 0.625 | relative viability ([7]; first compound 0.4 µM): 0.594 | relative viability ([7]; first compound 1.265 µM): 0.561 | relative viability ([7]; first compound 4 µM): 0.61 | relative viability ([8]; first compound 0.04 µM): 0.747 | relative viability ([8]; first compound 0.1265 µM): 0.714 | relative viability ([8]; first compound 0.4 µM): 0.741 | relative viability ([8]; first compound 1.265 µM): 0.762 | relative viability ([8]; first compound 4 µM): 0.69 | relative viability ([9]; first compound 0.04 µM): 0.898 | relative viability ([9]; first compound 0.1265 µM): 0.867 | relative viability ([9]; first compound 0.4 µM): 0.825 | relative viability ([9]; first compound 4 µM): 0.899 | relative viability ([10]; first compound 0.04 µM): 0.695 | relative viability ([10]; first compound 0.1265 µM): 0.743 | relative viability ([10]; first compound 0.4 µM): 0.768 | relative viability ([10]; first compound 1.265 µM): 0.682 | relative viability ([10]; first compound 4 µM): 0.676 | relative viability ([11]; first compound 0.04 µM): 0.744 | relative viability ([11]; first compound 0.1265 µM): 0.832 | relative viability ([11]; first compound 0.4 µM): 0.714 | relative viability ([11]; first compound 1.265 µM): 0.746 | relative viability ([11]; first compound 4 µM): 0.689 | relative viability ([12]; first compound 0.04 µM): 0.997 | relative viability ([12]; first compound 0.1265 µM): 1.02 | relative viability ([12]; first compound 0.4 µM): 1.03 | relative viability ([12]; first compound 1.265 µM): 1.04 | relative viability ([12]; first compound 4 µM): 0.908 | relative viability ([13]; first compound 0.04 µM): 1.13 | relative viability ([13]; first compound 0.1265 µM): 1.11 | relative viability ([13]; first compound 0.4 µM): 1.12 | relative viability ([13]; first compound 1.265 µM): 0.98 | relative viability ([13]; first compound 4 µM): 0.985 | relative viability ([14]; first compound 0.04 µM): 0.361 | relative viability ([14]; first compound 0.1265 µM): 0.469 | relative viability ([14]; first compound 0.4 µM): 0.384 | relative viability ([14]; first compound 1.265 µM): 0.35 | relative viability ([14]; first compound 4 µM): 0.415 | relative viability ([15]; first compound 0.04 µM): 0.554 | relative viability ([15]; first compound 0.1265 µM): 0.544 | relative viability ([15]; first compound 0.4 µM): 0.535 | relative viability ([15]; first compound 1.265 µM): 0.472 | relative viability ([15]; first compound 4 µM): 0.467 | relative viability ([16]; first compound 0.04 µM): 0.787 | relative viability ([16]; first compound 0.1265 µM): 0.758 | relative viability ([16]; first compound 0.4 µM): 0.848 | relative viability ([16]; first compound 1.265 µM): 0.766 | relative viability ([16]; first compound 4 µM): 0.788 | relative viability ([17]; first compound 0.04 µM): 0.853 | relative viability ([17]; first compound 0.1265 µM): 0.836 | relative viability ([17]; first compound 0.4 µM): 0.964 | relative viability ([17]; first compound 1.265 µM): 0.801 | relative viability ([17]; first compound 4 µM): 0.863 | relative viability ([18]; first compound 0.04 µM): 0.683 | relative viability ([18]; first compound 0.1265 µM): 0.719 | relative viability ([18]; first compound 0.4 µM): 0.686 | relative viability ([18]; first compound 1.265 µM): 0.713 | relative viability ([18]; first compound 4 µM): 0.632 | relative viability ([19]; first compound 0.04 µM): 0.388 | relative viability ([19]; first compound 0.1265 µM): 0.314 | relative viability ([19]; first compound 0.4 µM): 0.328 | relative viability ([19]; first compound 1.265 µM): 0.308 | relative viability ([19]; first compound 4 µM): 0.222 | relative viability ([20]; first compound 0.04 µM): 0.8 | relative viability ([20]; first compound 0.1265 µM): 0.872 | relative viability ([20]; first compound 0.4 µM): 0.778 | relative viability ([20]; first compound 1.265 µM): 0.775 | relative viability ([20]; first compound 4 µM): 0.805 | relative viability ([21]; first compound 0.04 µM): 0.837 | relative viability ([21]; first compound 0.1265 µM): 0.736 | relative viability ([21]; first compound 0.4 µM): 0.721 | relative viability ([21]; first compound 1.265 µM): 0.342 | relative viability ([21]; first compound 4 µM): 0.688 | relative viability ([22]; first compound 0.04 µM): 0.546 | relative viability ([22]; first compound 0.1265 µM): 0.523 | relative viability ([22]; first compound 0.4 µM): 0.676 | relative viability ([22]; first compound 1.265 µM): 0.529 | relative viability ([22]; first compound 4 µM): 0.526 | relative viability ([23]; first compound 0.04 µM): 0.601 | relative viability ([23]; first compound 0.1265 µM): 0.613 | relative viability ([23]; first compound 0.4 µM): 0.804 | relative viability ([23]; first compound 1.265 µM): 0.65 | relative viability ([23]; first compound 4 µM): 0.649 | relative viability ([24]; first compound 0.04 µM): 0.506 | relative viability ([24]; first compound 0.1265 µM): 0.606 | relative viability ([24]; first compound 0.4 µM): 0.594 | relative viability ([24]; first compound 1.265 µM): 0.524 | relative viability ([24]; first compound 4 µM): 0.557
